This note sets out measurements from paper PMC8617031, “Development of a BCL-xL and BCL-2 dual degrader with improved anti-leukemic activity,” (Nature Communications, 2021).

pIC50: −log10 of the molar value. “And” between values parts separate entries of the source, which are not always exact repeats. Identical values can stand only once. Like-named read-outs stand apart in the source and are kept apart here.

One data set relates to Kasumi-1 cells. As to the kind of experiment: Viability (MTS) of Kasumi-1 AML cells. It is filed as cell-based, human. The settings on record: Fig. 7c; for Luminescence (raw plate reading): Kasumi, 24h.
The target of the next data set is T1, BCL-xL (Homo sapiens, UniProt Q07817).
T1 construct: endogenous in cells
T1 sequence (Q07817 whole entry): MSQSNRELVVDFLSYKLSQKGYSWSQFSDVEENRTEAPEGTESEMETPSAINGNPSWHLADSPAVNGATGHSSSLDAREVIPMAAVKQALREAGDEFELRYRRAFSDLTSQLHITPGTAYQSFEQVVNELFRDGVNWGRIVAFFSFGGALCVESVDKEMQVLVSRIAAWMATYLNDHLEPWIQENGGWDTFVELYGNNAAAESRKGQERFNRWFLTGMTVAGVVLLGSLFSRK
The experiment in a line: BCL-xL degradation by immunoblot in Kasumi-1 cells. It is filed as cell-based. The settings on record: Fig. 7b; for BCL-xL level, bar graph (0 = 100): two replicate columns. The procedure:
Tubulin was used as an equal loading control. […] For the viability assays, the data are presented as mean ± s.d. from three replicate cell cultures in a representative experiment. Similar results were also observed in two additional independent experiments. d Representative immunoblot analyses of Kasumi-1 cells 16 h after treatment as indicated. […] Data are representative of two independent experiments. The dotted line represents the value from DMSO-treated cells. Source data are provided as a Source data file.
Cells were collected, washed once with ice-cold phosphate-buffered saline, pH 7.2 (PBS, cat. no. 20012027; Thermo Fisher Scientific) and lysed in RIPA lysis buffer (Cat. No. BP-115DG, Boston Bio Products, Ashland, MA, USA) supplemented with protease and phosphatase inhibitor cocktails (Cat. No. PPC1010, Sigma-Aldrich, St. Louis, MO, USA) through sonication. The samples were centrifuged at 14,000 r.p.m. for 5 min and the supernatants were transferred into a new tube. The protein concentration in the supernatants was determined using the Pierce BCA protein Assay kit (cat. no. 23225, Thermo Fisher Scientific). The protein concentration was normalized, and the samples were reduced in 4× Laemmli’s SDS-sample buffer (cat. no. BP-110R, Boston Bio Products) and denatured at 95 °C for 5 min. An equal amount of protein samples (20–40 μg per lane) were resolved using precast 4–20% Tris-glycine gels (Mini-PROTEAN TGX, cat. no. 456–1094, Bio-Rad), and resolved proteins were transferred onto 0.2-µm pore size polyvinylidene difluoride (PVDF) blotting membranes (cat. no. LC2002, Thermo Fisher Scientific) using mini trans-blot electrophoretic transfer cell (Bio-Rad). The membranes were blocked with non-fat dry milk (5% wt/vol) in 1× Tris-buffered saline-Tween-20 (TBST, cat. no. J77500, Affymetrix) for 1 h at room temperature, and were subsequently probed with primary antibodies at a predetermined optimal concentration in non-fat dry milk (5% wt/vol in TBST) overnight at 4 °C. The membranes were washed three times (5 min each) in TBST and then incubated with horse radish peroxidase (HRP)-conjugated secondary antibodies for 1 h at room temperature. Following sufficient washing with TBST, the membranes were exposed with chemiluminescent HRP substrate (cat. no. WBKLS0500, MilliporeSigma), and the signal was detected using the ChemiDoc MP Imaging System (Bio-Rad) and quantified using the ImageJ (v1.53a) software from NIH.

A short description of data set [1]: Viability (MTS) of Hela cells. It is filed as cell-based, human. The settings on record: human, Hela cells; for viability at 72 h, 0.00137174 uM: MTS absorbance 490, Conc 0.00137174 uM; for viability at 72 h, 0.00411523 uM: MTS absorbance 490, Conc 0.00411523 uM; for viability at 72 h, 0.037037 uM: MTS absorbance 490, Conc 0.037037 uM; for viability at 72 h, 0.111111 uM: MTS absorbance 490, Conc 0.111111 uM; for viability at 72 h, 0.333333 uM: MTS absorbance 490, Conc 0.333333 uM; for viability at 72 h, 1 uM: MTS absorbance 490, Conc 1 uM; for viability at 72 h, 3 uM: MTS absorbance 490, Conc 3 uM. Summed up:
(§1)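 Adherent cells treated after overnight attachment, nine concentrations in triplicate. After 72 h, MTS/PMS added and incubated 4 h at 37 °C before absorbance at 490 nm. Background-subtracted viability expressed as percent of untreated controls and fitted by non-linear regression.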

Data set [2] is described as follows: Viability (MTS) of 293T cells. The format is cell-based, human. The settings on record: human. Summed up:
as §1

Setting [3] is: read-out: cell viability normalised to control wells (mean of three replicates).
The mark [4] stands for this setting: read-out: cell viability normalised to control wells (single replicate).

For the compound `Cc1ncsc1-c1ccc([C@H](C)NC(=O)[C@@H]2C[C@@H](O)CN2C(=O)[C@@H](NC(=O)CCCCCCC(=O)N2CCN(C[C@]3(C)CCC(c4ccc(Cl)cc4)=C(CN4CCN(c5ccc(C(=O)NS(=O)(=O)c6ccc(N[C@H](CCN7CCOCC7)CSc7ccccc7)c(S(=O)(=O)C(F)(F)F)c6)cc5)CC4)C3)CC2)C(C)(C)C)cc1` [753b], the “Luminescence (raw plate reading)” value was 42731 and 33855 and 41105 and 35447 in the data set on Kasumi-1 cells (2um (plate column 11)); 25069 and 21488 and 20344 and 20760 with Kasumi-1 cells (4um (plate column 12)). The “BCL-xL degradation in Kasumi-1 cells (in words)” value on BCL-xL (Kasumi-1 cells, 16 h, compared with DT2216) is given as “more potent BCL-xL degradation”. The “BCL-xL level, bar graph (0 = 100)” value is 38 and 35 on BCL-xL (concentration 0.01); 15 and 18 at BCL-xL (concentration 0.03); 8 and 6 at BCL-xL (concentration 0.1); 7 and 5 on BCL-xL (concentration 0.3); 6 and 5 at BCL-xL (concentration 1).
For the compound `Cc1ncsc1-c1ccc([C@H](C)NC(=O)[C@@H]2C[C@@H](O)CN2C(=O)[C@@H](NC(=O)CCCCCC(=O)N2CCN(CC[C@H](CSc3ccccc3)Nc3ccc(S(=O)(=O)NC(=O)c4ccc(N5CCN(CC6=C(c7ccc(Cl)cc7)CCC(C)(C)C6)CC5)cc4)cc3S(=O)(=O)C(F)(F)F)CC2)C(C)(C)C)cc1` [DT2216], in data set [1] (setting [3]), the viability at 72 h, 0.00137174 uM came to 87.9%; the viability at 72 h, 0.00411523 uM worked out at 90.6%; the viability at 72 h, 0.037037 uM is 88.1%; the viability at 72 h, 0.111111 uM came out at 89.7%. Also, in data set [1] (setting [3]), the viability at 72 h, 0.333333 uM turned out to be 96.4%; the viability at 72 h, 1 uM came out at 82.9%; the viability at 72 h, 3 uM was 82.1%. For the same compound, in data set [1] (setting [4]), the viability at 72 h, 0.00137174 uM stood at 92.3%; the viability at 72 h, 0.00411523 uM worked out at 96.4%; the viability at 72 h, 0.037037 uM was 89.4%; the viability at 72 h, 0.111111 uM is 92.2%. In data set [1] (setting [4]), the viability at 72 h, 0.333333 uM is 102%; the viability at 72 h, 1 uM was 80.4%; the viability at 72 h, 3 uM turned out to be 78.4%. In the data set on Kasumi-1 cells (Homo sapiens, Kasumi 1, 72 h, read-out: IC50, viability of Kasumi-1 cells), the pIC50 is 5.94. Moreover, the “Luminescence (raw plate reading)” value with Kasumi-1 cells (2um (plate column 11)) is 404633 and 365594 and 354853 and 362278. For the same compound, the “Luminescence (raw plate reading)” value in the data set on Kasumi-1 cells (4um (plate column 12)) was 138608 and 119804 and 124492 and 119916. Moreover, the “BCL-xL level, bar graph (0 = 100)” value at BCL-xL (concentration 0.01) was 86 and 92. Further, on BCL-xL (concentration 0.03), the “BCL-xL level, bar graph (0 = 100)” value is 59 and 63. Further, the “BCL-xL level, bar graph (0 = 100)” value at BCL-xL (concentration 0.1) is 38 and 33. For the same compound, the “BCL-xL level, bar graph (0 = 100)” value on BCL-xL (concentration 0.3) is 22 and 25. Also, the “BCL-xL level, bar graph (0 = 100)” value on BCL-xL (concentration 1) is 11 and 12. Also, in data set [2], the viability at 72 h, 0.00137174 µM is 106%; the viability at 72 h, 0.00411523 µM came to 104%; the viability at 72 h, 0.037037 µM worked out at 106%; the viability at 72 h, 0.111111 µM was 110%. Further, the viability at 72 h, 3 µM in data set [2] was determined as 90.6%. In data set [2] (293T cell viability, MTS absorbance 490 as percent of untreated control, single replicate well, 0.037037 uM, replicate well, normalised to own plate), the viability at 72 h, 0.037037 µM was determined as 105%. Further, the viability at 72 h, 0.111111 µM in data set [2] (293T cell viability, MTS absorbance 490 as percent of untreated control, single replicate well, 0.111111 uM, replicate well, normalised to own plate) was 109%. Besides, in data set [2] (293T cell viability, MTS absorbance 490 as percent of untreated control, single replicate well, 3 uM, replicate well, normalised to own plate), the viability at 72 h, 3 µM came to 89.4%.
